The text below walks through data of patent US20050215520A1, “Complex of organic medicines and beta-cyclodextrin derivatives and its preparing process” (priority 2002, published 2005).

Read-outs that look alike come from different tables or passages of the source.

Data set [1] in a line: Critical value of complex by unit test method (complexes of various compounding ratio dissolved in set water, solution properties observed). Format: physicochemical. To be noted: hydroxide propyl beta-cyclodextrin to medicine. As to the method:
The critical value of organic medicine and beta-cyclodextrin derivatives in the present invention, may be determined with the undermentioned unit test method. All kinds of mole ratio and mass ratio of the medicine and beta-cyclodextrin derivative is made into complex with expanding loose body according to the method of the present invention, then the set water is added into the a variety of compounding ratio of complex, and by observing properties of the solution, the compounding ratio of exactly dissolving in water and with stable property, acts as the critical mole ratio or critical mass ratio of the present invention.

Data set [2] in a line: Critical mole ratio by saturated solution method. Format: physicochemical. The conditions noted are these: 40% hydroxide propyl beta-cyclodextrin aqueous solution, mean of 3 tests. As to the method: The critical mole ratio and critical mass ratio in the present invention may be determined with the undermentioned saturated solution method. Weighing accurately medicine, and placing in the container, and gradually adding beta-cyclodextrin aqueous solution metered accurately with agitation, until the medicine is dissolved exactly and completely in this aqueous solution. Calculate both mass number here and convert it to mole number. Repeat the above-mentioned test, and get the mean mole number of repeated test, and calculate critical mole ratio with the undermentioned formula: Critical mole ratio of medicine=mean mole number of beta-cyclodextrin/mean mole number of medicine For example, critical mole ratio of Artemisinin and hydroxide propyl beta-cyclodextrin is measured with the undermentioned method: Weight accurately Artemisinin, and grind in tissue grinding device, and place in beaker, and gradually add 40% hydroxide propyl beta-cyclodextrin aqueous solution metered accurately while agitation, until Artemisinin is dissolved exactly and completely in this aqueous solution. Calculate both mass number here and convert it to mole number.

The nature of data set [3]: Critical mole ratio or critical mass ratio of medicines and beta-cyclodextrin derivative (Table 1, examples). In kind it is physicochemical. As to the method: The critical mole ratio or critical mass ratio in the present invention refers to the mole ratio and mass ratio when complex of organic medicine and beta-cyclodextrin derivatives prepared with the method of this invention is dissolved exactly in water of specified amount to form stable aqueous solution.
The critical value of organic medicine and beta-cyclodextrin derivatives in the present invention, may be determined with the undermentioned unit test method.
All kinds of mole ratio and mass ratio of the medicine and beta-cyclodextrin derivative is made into complex with expanding loose body according to the method of the present invention, then the set water is added into the a variety of compounding ratio of complex, and by observing properties of the solution, the compounding ratio of exactly dissolving in water and with stable property, acts as the critical mole ratio or critical mass ratio of the present invention.
The critical mole ratio and critical mass ratio in the present invention may be determined with the undermentioned saturated solution method.
Weighing accurately medicine, and placing in the container, and gradually adding beta-cyclodextrin aqueous solution metered accurately with agitation, until the medicine is dissolved exactly and completely in this aqueous solution. Calculate both mass number here and convert it to mole number. Repeat the above-mentioned test, and get the mean mole number of repeated test, and calculate critical mole ratio with the undermentioned formula: Critical mole ratio of medicine=mean mole number of beta-cyclodextrin/mean mole number of medicine

Data set [4] concerns plasmodium. The data set is described as follows: Medicine efficacy on killing plasmodium in mice infected plasmodium. In kind it is in vivo. To be noted: for ED90 comparison p.o./iv: ED90 of original medicine p.o. relative to its complex iv (complex = 1); for ED50: read-out: efficacy (killing) ED50.
For data set [5] the following is noted: medicine alone; cited from earlier work.
The mark [6] stands for this setting: beta-cyclodextrin derivative (hydroxide propyl beta-cyclodextrin in the examples) to medicine, complex dissolves exactly in water to stable solution.

One may read the ED50 as the dose that gives a 50% effect, or the effect in half of the subjects. Take `C[C@@H]1CC[C@H]2[C@@H](C)C(=O)O[C@@H]3O[C@@]4(C)CC[C@@H]1[C@]32OO4` [Artemisinin]: in data set [1], the “critical mass ratio of complex” value is recorded as “about 28” and the “critical mole ratio of complex” value is on record as “about 5”. The critical mole ratio entry in data set [2] was “about 5”. In addition, the “Critical value mole ratio” value in data set [3] (setting [6]) turned out to be 5. The compound further displayed an ED90 comparison p.o./iv in data set [4] of 2.13. Also, the 50% effective dose (ED50) in data set [4] (mice infected plasmodium, route of administration po.) worked out at 19 mg/kg. In addition, the “water solubility of the medicine” value in data set [5] is reported as “hardly water-soluble”.
Consider `C[C@H]1[C@H](OC(=O)CCC(=O)O)O[C@@H]2O[C@@]3(C)CC[C@H]4[C@H](C)CC[C@@H]1[C@@]24OO3` [Artesunate], for which the “Critical value mole ratio” value in data set [3] (setting [6]) was determined as 3. The compound further returned an ED90 comparison p.o./iv in data set [4] of 1.88. Moreover, the ED50 in data set [4] (Plasmodium, po) is 9.96 mg/kg.
For `CC(C)CC(N(C)C)C1(c2ccc(Cl)cc2)CCC1` (stereo not drawn) [Sibutramine], the “Critical value Mass ratio” value in data set [3] (setting [6]) is recorded as 2.
For `CCCc1nn(C)c2c(=O)[nH]c(-c3cc(S(=O)(=O)N4CCN(C)CC4)ccc3OCC)nc12` [Sildenafil], the “Critical value mole ratio” value in data set [3] (setting [6]) was determined as 2.
As to `COc1cc(Cc2cnc(N)nc2N)cc(OC)c1OC` [TMP], in data set [3] (setting [6]), the “Critical value mole ratio” value was 3.
Still for that read-out and setting: in the case of `CC/C(=C(\c1ccccc1)c1ccc(OCCN(C)C)cc1)c1ccccc1` [Tamoxifen] it was 2; in that of `CC(=O)O[C@H]1C(=O)[C@@]2(C)[C@H]([C@H](OC(=O)c3ccccc3)[C@]3(O)C[C@H](OC(=O)[C@H](O)[C@@H](NC(=O)c4ccccc4)c4ccccc4)C(C)=C1C3(C)C)[C@]1(OC(C)=O)CO[C@@H]1C[C@@H]2O` [Taxol], 100.
For the compound `CCS(=O)(=O)CCn1c([N+](=O)[O-])cnc1C` [Tinidazole], the “Critical value Mass ratio” value in data set [3] (setting [6]) came to 6.5.
As for `Cc1ccc(-c2nc3ccc(C)cn3c2CC(=O)N(C)C)cc1` [Zolpidem], the “Critical value mole ratio” value in data set [3] (setting [6]) is 2.
`CC1(C)C2CCC1(C)C(O)C2` (stereo not drawn) [borneol]: the “Critical value Mass ratio” value in data set [3] (setting [6]) was 6.
For the compound `Cn1c(=O)c2c(ncn2C)n(C)c1=O` [caffein], the “Critical value Mass ratio” value in data set [3] (setting [6]) is 4.
As for `CC12CCC(CC1=O)C2(C)C` (stereo not drawn) [camphor], in data set [3] (setting [6]), the “Critical value Mass ratio” value is 8.
Take `CC(C)(O)C(Cl)(Cl)Cl` [chlorbutanol]: the “Critical value Mass ratio” value in data set [3] (setting [6]) is 6.
As to `OC(CCCN1CCCCC1)(c1ccccc1)c1ccccc1` [difenidol], the “Critical value mole ratio” value in data set [3] (setting [6]) is on record as 1.
As for `NC(N)=Nc1nc(CSCCC(N)=NS(N)(=O)=O)cs1` [famotidine], the “Critical value Mass ratio” value in data set [3] (setting [6]) is on record as 9.
With `Cc1ccc(S(=O)(=O)NC(=O)NN2CC3CCCC3C2)cc1` (stereo not drawn) [gliclazide], the “Critical value mole ratio” value in data set [3] (setting [6]) is listed as 2.
`CN1CCC(=C2c3ccccc3CC(=O)c3sccc32)CC1` [ketotifen]: the “Critical value Mass ratio” value in data set [3] (setting [6]) is given as 4.
Still for that read-out and setting: the figure for `Cc1nc(C)c(C)nc1C` [ligustrazine] is 12.
As to `O=C(O)CCCC[C@@H]1CCSS1` [lipoic acid], the “Critical value mole ratio” value in data set [3] (setting [6]) is on record as 1.
Still for that read-out and setting: in the case of `CC1CCC(C(C)C)C(O)C1` (stereo not drawn) [menthol] it was 2.
Regarding `CCOC(=O)[N-]c1cn(N2CCOCC2)n[o+]1` [molsidomine], in data set [3] (setting [6]), the “Critical value Mass ratio” value stood at 11.
The same measure, in the same setting: in the case of `CCn1cc(C(=O)O)c(=O)c2cc(F)c(N3CCNCC3)cc21` [norfloxacin] it was 30; in that of `CC(=O)Nc1ccc(O)cc1` [paracetamol], 3.
In the case of `C[C@]12C=CC(=O)C=C1CC[C@@H]1[C@@H]2C(=O)C[C@@]2(C)[C@H]1CC[C@]2(O)C(=O)CO` [prednisone], the “Critical value mole ratio” value in data set [3] (setting [6]) is recorded as 4.
On the same count and under the same terms, in the case of `CC(=O)S[C@@H]1CC2=CC(=O)CC[C@]2(C)[C@H]2CC[C@@]3(C)[C@@H](CC[C@@]34CCC(=O)O4)[C@H]12` [spironolactone] it was 3; in that of `Nc1ccc(S(=O)(=O)Nc2ncccn2)cc1` [sulfadiazine], 3; in that of `Cc1noc(NS(=O)(=O)c2ccc(N)cc2)c1C` [sulfafurazole], 2.
The same measure, in the same setting: the figure for `Cc1cc(NS(=O)(=O)c2ccc(N)cc2)no1` [sulfamethoxazole] is 2.
As to `C[C@]12CC[C@H]3[C@@H](CCC4=CC(=O)CC[C@@]43C)[C@@H]1CC[C@@H]2O` [testosterone], in data set [3], the “Critical value mole ratio” value came out at 4.
On to `NC(=O)CCCCC1CCSS1` (stereo not drawn) [thioctamide], for which the “Critical value Mass ratio” value in data set [3] (setting [6]) was determined as 7.
Still for that read-out and setting: the figure for `COc1cc(C=O)ccc1O` [vanillin] is 9.
For Artemoter, in data set [3] (setting [6]), the “Critical value mole ratio” value came out at 8.
For Medicamycin, the “Critical value mole ratio” value in data set [3] (setting [6]) was 8.
Regarding Oryzanol, in data set [3] (setting [6]), the “Critical value Mass ratio” value is on record as 38.
